# From patent publication US4316839A, “Imidazodiazepine derivatives” (Hoffman-La Roche Inc., priority 1979, dated 1982)
# Assays:
# Schistosoma mansoni [1] = test: schistosomicidal activity in infected golden hamsters; format: in vivo; settings: Hamster; Compound S 75 mg/kg p.o. alone
# Procedure: (§1) Mice and golden hamsters are infected subcutaneously with 60 cercaria of Schistosoma mansoni. Ca 42 days after the infection, they are treated orally with a single dosage of the compound to be tested. 5 Animals are used per test preparation and dosage. 10 Untreated animals are used as controls. The animals are killed and dissected 2 weeks (hamster) or 3 weeks (mice) after the treatment. Worm pairs in mesenteric veins, portal vein and liver are dissected-out, counted and the condition of the worms (living or dead) is registered. A schistosomicidal activity of a test preparation manifests itself in the appearance of dead worms in the vessels of the liver. Dead worms are never found in untreated control animals. The test is evaluated by calculating the percentage of dead worm pairs in the vessels of the liver in infected, treated animals.
# (§2) The following representative compounds of formula I were tested in tests described earlier for possible detrimental effects on the schistosomicidal activity of (+)-5-(o-chlorophenyl)-1,3-dihydro-3-methyl-7-nitro-2H-1,4-benzodiazepin-2-one (compound S).
# Schistosoma mansoni [2] = test: in vitro schistosomicidal activity (motility of isolated worm pairs); format: cell-based; settings: 25 μg/ml alone
# Procedure: In order to test the in vitro activity of preparations, worm pairs of Schistosoma mansoni are isolated from mice and incubated at 37° C. in a nutrient medium. Test preparations are added in the form of a solution or as a suspension. The motility of the worms is observed under the microscope and registered during the test duration of 120 hours. A schistosomicidal activity of a test preparation manifests itself in the more or less rapid loss of motility of the worms. Control worms in the nutrient medium without the addition of test preparation maintain their normal motility during the entire test duration of 120 hours.
# as §2
# Schistosoma mansoni [3] = test: schistosomicidal activity in infected mice; format: in vivo; settings: Mouse
# Procedure: as §1, §2
# [4] = target: specific benzodiazepine receptors in the cerebral cortex; test: inhibition of the binding of tritiated diazepam at the specific benzodiazepine receptors in the cerebral cortex; settings: compounds of formula I with A = group (a)
# Procedure: The affinity of compounds of formula I to the central benzodiazepine receptors was determined according to the method described in Life Science 20, 2101-2110 (1977) and Science 198, 849-851 (1977). According to this method, the inhibition of the binding of tritiated diazepam at the specific benzodiazepine receptors in the cerebral cortex by test substances is ascertained. The IC50 ("50% inhibiting concentration") is that concentration of the test substance which brings about a 50 percent inhibition of the specific binding of the tritiated diazepam at the specific benzodiazepine receptors in the cerebral cortex.
# (§3) In the following Table there are compiled the results which have been obtained with representative compounds of formula I. The ED50 value is given for each compound listed in the Table. The ED50 is the amount of the test compound in mg/kg (p.o.) which counteracts in 50% of the animals the diazepam effect in the foregoing test. Moreover, the Table contains the IC50 value (defined hereinbefore) for all test compounds listed therein as well as details concerning the acute toxicity of certain compounds (LD50 in mg/kg following single oral administration to mice).
# [5] = acute toxicity following single oral administration to mice; settings: mouse, in vivo
# Source text: as §3
# [6] = tested on: diazepam effect in the pentetrazole test; test: pentetrazole test: antagonism of the diazepam effect in mice; format: in vivo; settings: Mus musculus, po; mice; diazepam 5 mg/kg i.p. 1 hour and test compound 15 min before pentetrazole 120 mg/kg i.p.
# Procedure: This property was used as a basis for the test described hereinafter which permits the determination of compounds which are capable of antagonising the central properties of 1,4-benzodiazepines which have tranquillising activity.
# The antagonistic activity of the compounds tested, i.e. their ability to counteract the activity of diazepam in the pentetrazole test, is determined by counting the mice which suffer spasmodic seizures in this test.
# as §3
# [7] = tested on: central activities of flunitrazepam; test: EEG of the dorsal hippocampus (theta rhythm) in conscious, curarised rats; antagonism of flunitrazepam; format: in vivo
# Procedure: Four tests were carried out on conscious, curarised, artifically respirated rats. The bipolar-derived EEG of the dorsal hippocampus served as the measured variable. 10 minutes after the beginning of the derivation flunitrazepam was administered intravenously in a dosage of 0.1 mg/kg. The test substance was likewise administered intravenously in a dosage of 1 mg/kg to one animal 10 minutes and to three animals 30 minutes after the administration of flunitrazepam. The EEGs obtained were analysed continuously in the frequency range according to the rules of the Fourier transformation, whereby each of the computed spectra related to 1 minute.
# The normal EEG from the hippocampus of conscious, curarised rats is characterised by a stable theta rhythm of 3.75-4.25 Hertz which remains unchanged at least 3 hours after the beginning of the artificial respiration. Flunitrazepam, in the given dosage, completely suppresses this theta rhythm for about 15 minutes. Thereafter, there appears a rhythm which is slowed down to 2.75-3.25 Hertz, which increases continuously and again attains the normal frequency of 4 Hertz 1 to 1.5 hours after the injection.
compound,measurement,setting,value
"CC1N=C(c2ccccc2Cl)c2cc([N+](=O)[O-])ccc2NC1=O (single isomer, unassigned; (+)) [Compound S, (+)-5-(o-chlorophenyl)-1,3-dihydro-3-methyl-7-nitro-2H-1,4-benzodiazepin-2-one]",Schistosomicidal activity in %,Schistosoma mansoni [1],100%
same,Activity (in vitro),Schistosoma mansoni [2],a (worm pairs motionless within 15)
same,Schistosomicidal activity in %,Schistosoma mansoni [3]; Compound S 75 mg/kg p.o. alone,99%
"CCOC(=O)c1ncn2c1CN(C)C(=O)c1cc(F)ccc1-2 [Example 1, ethyl 8-fluoro-5,6-dihydro-5-methyl-6-oxo-4H-imidazo[1,5-a][1,4]benzodiazepine-3-carboxylate]",IC50,[4],2.5 µM
same,LD50,[5],> 5000 mg/kg
same,ED50,[6],5.8 mg/kg
same,Schistosomicidal activity in %,Schistosoma mansoni [3]; 750 mg/kg p.o. alone,0%
"CCOC(=O)c1ncn2c1[C@@H]1CCCN1C(=O)c1ccccc1-2 [Example 30, ethyl (S)-11,12,13,13a-tetrahydro-9-oxo-9H-imidazo[1,5-a]pyrrolo[2,1-c][1,4]benzodiazepine-1-carboxylate]",IC50,[4],6.4 µM
same,theta rhythm frequency after test substance,"[7]; 1 mg/kg i.v., 10 or 30 min after flunitrazepam",4 Hertz
same,normalisation of theta rhythm,"[7]; 1 mg/kg i.v., 10 or 30 min after flunitrazepam 0.1 mg/kg i.v.","immediate, long-lasting normalisation of the described theta rhythm at 4 Hertz"
same,effect on theta rhythm,"[7]; 1 mg/kg i.v., 10 min after flunitrazepam","immediately brought about the rhythm suppressed by flunitrazepam, whereby this showed the normal frequency from the outset"
same,effect on theta rhythm,"[7]; 1 mg/kg i.v., 30 min after flunitrazepam","accelerated the already, but slowly, re-appearing rhythm immediately to its normal frequency of 4 Hertz"
same,antagonism of the central activities of flunitrazepam,"[7]; rats, overall finding","antagonises the central activities of the known 1,4-benzodiazepine derivative flunitrazepam"
same,LD50,[5],1250 to 2500 mg/kg
same,ED50,[6],9.3 mg/kg
"CN1C(=O)CN=C(c2ccccc2F)c2cc([N+](=O)[O-])ccc21 [flunitrazepam, reference compound]","complete suppression of theta rhythm, duration",[7]; flunitrazepam 0.1 mg/kg i.v.,about 15 minutes
same,frequency of slowed-down rhythm,"[7]; flunitrazepam 0.1 mg/kg i.v., after suppression phase",2.75-3.25 Hertz
same,time to again attain normal frequency of 4 Hertz,"[7]; flunitrazepam 0.1 mg/kg i.v., after the injection",1 to 1.5 h
